EC50 data for 21 substances are collected here from patent publication US20240270821A1, “GIP/GLP1/GCG TRI-RECEPTOR AGONISTS AND USES THEREOF” (priority 2023, published 2024).

Starred links: 1 amine or outer side, 2 acyl side, 3 side chain; linkers in the order of their positions; H or OH if unused. Non-standard residues stand in square brackets, D forms with d. Groups on a side chain read outwards from the residue. *: point of attachment. C18 diacid = O=C(O)CCCCCCCCCCCCCCCCC(=O)*; γGlu = O=C(O)[C@H](CCC(=O)[*:2])N[*:1]; αMe4Pal = C[C@](N)(Cc1ccncc1)C(=O)O; αMeY = C[C@](N)(Cc1ccc(O)cc1)C(=O)O; 4Pal = N[C@@H](Cc1ccncc1)C(=O)O; αMeL = CC(C)C[C@](C)(N)C(=O)O; Orn = NCCC[C@H](N)C(=O)O; AEEA = NCCOCCOCC(=O)O; Aib = CC(C)(N)C(=O)O

One may read the EC50 as the midpoint of the concentration-response curve.

Format in all cases: cell-based
Assay [1] addresses T1, hGLP-1R (Homo sapiens, UniProt P43220). In words: Functional cAMP activity in the presence of 1% HSA. Conditions: read-out: cAMP Rel EC50, hGLP-1R.
Assay [2] addresses T1, hGLP-1R. As to the kind of experiment: Functional cAMP activation in the presence of 0.1% casein (no HSA). Conditions: in the presence of 0.1% casein (no HSA); geometric mean; read-out: Relative cAMP EC50, hGLP-1R.
Assay [3] has as its target T2, hGIPR (Homo sapiens, UniProt P48546).
T2 sequence (P48546 22-466): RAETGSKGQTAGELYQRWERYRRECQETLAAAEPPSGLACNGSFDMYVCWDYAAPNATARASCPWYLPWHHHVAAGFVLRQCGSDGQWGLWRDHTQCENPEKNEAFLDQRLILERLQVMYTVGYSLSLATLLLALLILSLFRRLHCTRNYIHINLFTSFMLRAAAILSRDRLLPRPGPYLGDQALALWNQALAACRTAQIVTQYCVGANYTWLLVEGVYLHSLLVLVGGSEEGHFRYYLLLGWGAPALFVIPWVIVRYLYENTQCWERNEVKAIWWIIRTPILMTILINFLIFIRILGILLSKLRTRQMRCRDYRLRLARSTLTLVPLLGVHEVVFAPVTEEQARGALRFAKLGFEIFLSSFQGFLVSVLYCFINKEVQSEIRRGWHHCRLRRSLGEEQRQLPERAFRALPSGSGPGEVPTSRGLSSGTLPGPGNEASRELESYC
As to the kind of experiment: Functional cAMP activity in the presence of 1% HSA. Particulars: read-out: cAMP Rel EC50, hGIPR.

For assay [4], the target named is T2, hGIPR. As to the kind of experiment: Functional cAMP activation in the presence of 0.1% casein (no HSA). Conditions: in the presence of 0.1% casein (no HSA); geometric mean; read-out: Relative cAMP EC50, hGIPR.
Another assay has as its target hGcgR (Homo sapiens, UniProt P47871). The description is as above. Conditions: in the presence of 0.1% casein (no HSA); geometric mean; read-out: Relative cAMP EC50, hGcgR.
For a further assay, the target named is human GcgR (Homo sapiens, UniProt P47871). As to the kind of experiment: Functional cAMP activity in the presence of 1% HSA. Particulars: read-out: cAMP Rel EC50, hGcgR.
human GcgR, sequence (P47871 26-477): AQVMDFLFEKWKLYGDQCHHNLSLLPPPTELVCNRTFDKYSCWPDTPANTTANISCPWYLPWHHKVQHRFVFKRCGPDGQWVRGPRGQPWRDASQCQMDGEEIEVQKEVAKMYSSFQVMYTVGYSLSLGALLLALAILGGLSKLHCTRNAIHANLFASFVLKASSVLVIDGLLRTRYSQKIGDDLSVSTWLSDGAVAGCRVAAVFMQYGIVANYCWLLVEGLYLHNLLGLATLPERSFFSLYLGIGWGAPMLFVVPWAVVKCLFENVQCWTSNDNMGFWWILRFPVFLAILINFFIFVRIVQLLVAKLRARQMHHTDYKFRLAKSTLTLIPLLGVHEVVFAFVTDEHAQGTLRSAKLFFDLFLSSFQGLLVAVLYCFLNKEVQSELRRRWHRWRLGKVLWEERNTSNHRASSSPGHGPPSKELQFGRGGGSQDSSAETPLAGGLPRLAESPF
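For Relative cAMP EC50, hGIPR in this document: intracellular cAMP rise after 30 min at 37 °C read by HTRF against a standard curve, scaled between buffer alone (0%) and top control ligand concentration (100%), four-parameter fit.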
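For Relative cAMP EC50, hGLP-1R in this document: intracellular cAMP rise after 30 min at 37 °C read by HTRF, normalized between buffer only (0%) and maximal control ligand (100%), four-parameter variable-slope fit.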
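For Relative cAMP EC50, hGcgR in this document: intracellular cAMP rise after 30 min at 37 °C, read by HTRF against a cAMP standard curve, scaled from buffer only (0%) to maximal control ligand response (100%).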

hGcgR, sequence (P47871 26-477): as above
T1 sequence (P43220 24-463): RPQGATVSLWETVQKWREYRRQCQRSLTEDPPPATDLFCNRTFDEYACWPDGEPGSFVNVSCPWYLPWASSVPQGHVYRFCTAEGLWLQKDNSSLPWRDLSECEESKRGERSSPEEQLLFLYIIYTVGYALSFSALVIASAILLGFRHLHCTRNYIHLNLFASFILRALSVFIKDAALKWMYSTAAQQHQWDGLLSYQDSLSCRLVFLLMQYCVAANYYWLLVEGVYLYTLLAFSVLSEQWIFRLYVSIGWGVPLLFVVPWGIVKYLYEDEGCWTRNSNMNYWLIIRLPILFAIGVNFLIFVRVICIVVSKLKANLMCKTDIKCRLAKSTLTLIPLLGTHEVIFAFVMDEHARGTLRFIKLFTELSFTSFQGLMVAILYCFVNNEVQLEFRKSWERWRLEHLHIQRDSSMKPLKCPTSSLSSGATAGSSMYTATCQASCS

In the case of “H-Y[Aib]QGTFTSD[4Pal]SQ[αMeL]LDKK([γGlu-γGlu-C18 diacid])AQ[αMe4Pal]AFIE[αMe4Pal]LIE[Aib]GPSSGEPPPSGEEE-NH2 [Example 1124]”, the EC50 on hGLP-1R [1] was 304 nM; at hGLP-1R [2], 10.1 nM; on hGIPR [3], 12 nM; on hGIPR [4], 0.187 nM; at hGcgR it was 6.97 nM; on human GcgR, 400 nM.
Turning to “H-Y[Aib]QGTFTSD[4Pal]SQ[αMeL]LDKK([γGlu-γGlu-C18 diacid])AQ[αMe4Pal]AFIE[αMe4Pal]LIE[Aib]GPSSGEPPPSGSEE-NH2 [Example 1125]”, the EC50 came to 243 nM at hGLP-1R [1]; 8.26 nM at hGLP-1R [2]; 3.95 nM on hGIPR [3]; 0.173 nM at hGIPR [4]; 5.83 nM on hGcgR; 264 nM on human GcgR.
In the case of “H-Y[Aib]QGTFTSD[4Pal]SQ[αMeL]LDKK([γGlu-γGlu-C18 diacid])AQ[αMe4Pal]QFIE[αMeY]LIEGGPSSGAPPPSGS-NH2 [Example 934]”, the EC50 at hGLP-1R [1] is 175 nM; at hGLP-1R [2], 0.649 nM; at hGIPR [3] it was 28.1 nM; at hGIPR [4] it was 0.0738 nM; at hGcgR it was 2.73 nM; on human GcgR, 1380 nM.
With “H-Y[Aib]QGTFTSD[4Pal]SQ[αMeL]LDKK([γGlu-γGlu-γGlu-C18 diacid])AQ[αMe4Pal]AFIEYLIE[Aib]GPSSGAPPPSGS-NH2 [Example 859]”, the EC50 at hGLP-1R [1] came out at 543 nM; on hGLP-1R [2], 2.38 nM; on hGIPR [3], 32.3 nM; on hGIPR [4], 0.12 nM; at hGcgR it was 8.45 nM; on human GcgR it was 2250 nM.
On to “H-Y[Aib]QGTFTSD[4Pal]SQ[αMeL]LD[Orn]K([AEEA-γGlu-C18 diacid])AQ[Aib]AFIE[αMeY]LIEGGPSSGAPPPSGS-NH2 [Example 850]”, for which the EC50 was found to be 57.8 nM at hGLP-1R [1]; 0.451 nM at hGLP-1R [2]; 27 nM at hGIPR [3]; 0.346 nM on hGIPR [4]; 28.4 nM on hGcgR; 3660 nM at human GcgR.
With “H-Y[Aib]QGTFTSD[4Pal]SQ[αMeL]LD[Orn]K([AEEA-γGlu-C18 diacid])AQ[Aib]AFIE[αMeY]LLEGGPSSGAPPPSGS-NH2 [Example 911]”, the EC50 was 255 nM at hGLP-1R [1]; 1.09 nM on hGLP-1R [2]; 26.6 nM at hGIPR [3]; 0.197 nM on hGIPR [4]; 9.53 nM on hGcgR; 2390 nM on human GcgR.
For “H-Y[Aib]QGTFTSD[4Pal]SQ[αMeL]LD[Orn]K([AEEA-γGlu-C18 diacid])AQ[αMe4Pal]AFIEYLIA[Aib]GPSSGEPPPSGSEE-NH2 [Example 1095]”, the EC50 at hGLP-1R [1] was 159 nM; at hGLP-1R [2], 1.17 nM; on hGIPR [3] it was 8.73 nM; on hGIPR [4], 0.065 nM; at hGcgR it was 2.75 nM; on human GcgR, 337 nM.
Consider “H-Y[Aib]QGTFTSD[4Pal]SQ[αMeL]LD[Orn]K([AEEA-γGlu-C18 diacid])AQ[αMe4Pal]AFIEYLIQ[Aib]GPSSGEPPPSGSEE-NH2 [Example 1096]”, for which the EC50 was 194 nM on hGLP-1R [1]; 1.47 nM at hGLP-1R [2]; 11.6 nM at hGIPR [3]; 0.0799 nM at hGIPR [4]; 3.94 nM on hGcgR; 397 nM on human GcgR.
As to “H-Y[Aib]QGTFTSD[4Pal]SQ[αMeL]LD[Orn]K([AEEA-γGlu-C18 diacid])AQ[αMe4Pal]AFIE[αMeY]LIA[Aib]GPSSGAPPPSGSEE-NH2 [Example 1110]”, the EC50 on hGLP-1R [1] amounted to 52 nM; at hGLP-1R [2], 0.508 nM; on hGIPR [3] it was 5.4 nM; at hGIPR [4], 0.059 nM; on hGcgR it was 5.91 nM; at human GcgR it was 449 nM.
For “H-Y[Aib]QGTFTSD[4Pal]SQ[αMeL]LD[Orn]K([AEEA-γGlu-C18 diacid])AQ[αMe4Pal]AFIE[αMeY]LIA[Aib]GPSSGEPPPSGSEE-NH2 [Example 1099]”, the EC50 was found to be 75.8 nM on hGLP-1R [1]; 0.73 nM on hGLP-1R [2]; 8.64 nM on hGIPR [3]; 0.076 nM at hGIPR [4]; 3.47 nM on hGcgR; 472 nM on human GcgR.
As for “H-Y[Aib]QGTFTSD[4Pal]SQ[αMeL]LD[Orn]K([AEEA-γGlu-C18 diacid])AQ[αMe4Pal]AFIE[αMeY]LIEGGPSSGAPPPSGS-NH2 [Example 849]”, the EC50 at hGLP-1R [1] was 111 nM; at hGLP-1R [2], 0.661 nM; at hGIPR [3], 36.6 nM; on hGIPR [4], 0.306 nM; on hGcgR it was 6.66 nM; at human GcgR, 1160 nM.
As for “H-Y[Aib]QGTFTSD[4Pal]SQ[αMeL]LD[Orn]K([AEEA-γGlu-C18 diacid])AQ[αMe4Pal]AFIE[αMeY]LIEGGPSSGAPPPSGSEE-NH2 [Example 1041]”, the EC50 on hGLP-1R [1] was determined as 316 nM; at hGLP-1R [2] it was 1.24 nM; on hGIPR [3] it was 75.7 nM; at hGIPR [4], 0.365 nM; at hGcgR, 7.71 nM; at human GcgR, 1720 nM.
With “H-Y[Aib]QGTFTSD[4Pal]SQ[αMeL]LD[Orn]K([AEEA-γGlu-C18 diacid])AQ[αMe4Pal]AFIE[αMeY]LIE[Aib]GPSSGAPPPSGSEE-NH2 [Example 1108]”, the EC50 at hGLP-1R [1] was determined as 76.2 nM; at hGLP-1R [2], 0.752 nM; on hGIPR [3], 5.22 nM; at hGIPR [4], 0.0507 nM; on hGcgR it was 4.96 nM; on human GcgR it was 468 nM.
For “H-Y[Aib]QGTFTSD[4Pal]SQ[αMeL]LD[Orn]K([AEEA-γGlu-C18 diacid])AQ[αMe4Pal]AFIE[αMeY]LIE[Aib]GPSSGEPPPSGSEE-NH2 [Example 1097]”, the EC50 at hGLP-1R [1] is 141 nM; on hGLP-1R [2], 1.59 nM; on hGIPR [3], 27.3 nM; at hGIPR [4], 0.136 nM; on hGcgR, 6.16 nM; on human GcgR it was 752 nM.
As for “H-Y[Aib]QGTFTSD[4Pal]SQ[αMeL]LD[Orn]K([AEEA-γGlu-C18 diacid])AQ[αMe4Pal]AFI[dE][αMeY]LIEGGPSSGAPPPSGSEE-NH2 [Example 1042]”, the EC50 at hGLP-1R [1] is 642 nM; on hGLP-1R [2] it was 10.3 nM; at hGIPR [3] it was 84.8 nM; on hGIPR [4], 1.3 nM; on hGcgR, 27.5 nM; at human GcgR it was 1890 nM.
As for “H-Y[Aib]QGTFTSD[4Pal]SQ[αMeL]LD[Orn]K([AEEA-γGlu-C18 diacid])AQ[αMe4Pal]QFIE[αMeY]LIA[Aib]GPSSGEPPPSGSEE-NH2 [Example 1100]”, the EC50 was 77.2 nM at hGLP-1R [1]; 0.514 nM on hGLP-1R [2]; 9.04 nM on hGIPR [3]; 0.0694 nM on hGIPR [4]; 5.28 nM at hGcgR; 577 nM at human GcgR.
Take “H-Y[Aib]QGTFTSD[4Pal]SQ[αMeL]LD[Orn]K([AEEA-γGlu-C18 diacid])AQ[αMe4Pal]QFIE[αMeY]LIEGGPSSGAPPPSGS-NH2 [Example 857]”: the EC50 at hGLP-1R [1] was 87.3 nM; on hGLP-1R [2], 0.433 nM; on hGIPR [3], 36.1 nM; at hGIPR [4], 0.441 nM; on hGcgR, 6.21 nM; on human GcgR, 1050 nM.
For the substance “H-Y[Aib]QGTFTSD[4Pal]SQ[αMeL]LD[Orn]K([AEEA-γGlu-C18 diacid])AQ[αMe4Pal]QFIE[αMeY]LIEGGPSSGAPPPSGSEE-NH2 [Example 1045]”, the EC50 at hGLP-1R [1] came out at 276 nM; on hGLP-1R [2], 1.51 nM; at hGIPR [3], 107 nM; at hGIPR [4], 0.781 nM; at hGcgR, 7.35 nM; on human GcgR it was 1540 nM.
For “H-Y[Aib]QGTFTSD[4Pal]SQ[αMeL]LD[Orn]K([AEEA-γGlu-γGlu-C18 diacid])AQ[αMe4Pal]AFIEYLIE[dA]GPSSGEPPPSGS-NH2 [Example 1018]”, the EC50 was 163 nM at hGLP-1R [1]; 1.69 nM on hGLP-1R [2]; 14.1 nM at hGIPR [3]; 0.51 nM on hGIPR [4]; 5.29 nM on hGcgR; 568 nM at human GcgR.
Regarding “H-Y[Aib]QGTFTSD[4Pal]SQ[αMeL]LD[Orn]K([Glu-γGlu-C18 diacid])AQ[αMe4Pal]AFIQ[αMeY]LIEGGPSSGAPPPSGSEEE-NH2 [Example 1077]”, the EC50 at hGLP-1R [1] was determined as 408 nM; on hGLP-1R [2], 1.48 nM; on hGIPR [3], 27.8 nM; at hGIPR [4] it was 0.23 nM; at hGcgR, 18.8 nM; at human GcgR it was 3160 nM.
With “H-Y[Aib]QGTFTSD[4Pal]SQ[αMeL]LD[Orn]K([dE-γGlu-C18 diacid])AQ[αMe4Pal]AFIE[αMeY]LIAGGPSSGAPPPSGSEE-NH2 [Example 1074]”, the EC50 on hGLP-1R [1] amounted to 101 nM; at hGLP-1R [2], 0.794 nM; at hGIPR [3], 8.49 nM; on hGIPR [4], 0.0745 nM; at hGcgR, 22.8 nM; on human GcgR it was 1990 nM.
